# Assay results reported in patent US9365851B2, “Spalt-like transcription factor 4 (SALL4) and uses thereof” (National University of Singapore, priority 2011, dated 2016).
# Read-outs that look alike come from different tables or passages of the source.
# Test system: primary human AML cells
# Assay: Viability / cell death of primary AML cells in culture (Annexin V/PI flow cytometry)
# Format: cell-based
# Settings: for cell death rate: 96 h after first treatment, Chariot (Example 1)
# Description: Whether a therapeutic effect could be achieved by using this wt peptide on primary AML samples was then tested. Ninety-six hours after the first treatment of peptides (wt, Mut, or Scr) or TSA in the primary AML cells collected from a patient, the remaining alive cells were measured by FACS analysis using Annexin V/PI staining. During the treatment the wt and control peptides (Mut or Scr) were re-introduced twice at the 24-hour and the 48-hour time points along with the Chariot (Active Motif) transfection agent. A significant effect of the wt peptide on the cell viability of primary AML cells was observed. While there was a 56% cell death rate with wt peptide treatment at the end of the fourth day, the cell death rate was only 35% in the non-treated or treated with the control peptide, and the cell death rate was 44% in cells treated with TSA (FIG. 5).
# Three frozen primary AML patient samples were used for this study, and were obtained from Brigham and Women's Hospital at Boston, Mass., USA, under approved IRB protocol (No. 2011-P-000096/1). Culture conditions were adapted from a published protocol 28-31. In brief, the frozen AML samples were incubated in RPMI1640 medium without serum for 1 to 3 h after thawing and DNA fragments from dead cells were removed by washing. After three washes with the medium, 1×10^6 cells per well of 12-well plate were maintained in 1 ml of serum-free medium (StemSpan-H3000, Catalogue #09800, StemCell Technologies) supplied with StemSpan CC 100 cytokine cocktail (Catalogue #02690, StemCell Technologies) that supports 40-50% viability at 72 hours postthaw culturing based on our experience. These cells were then used for the down-regulation of SALL4 (see details below) and peptide treatment experiments.
# SALL4 is critical for leukemic cell survival in the AML cell line NB4 (Yang, et al., Blood, 112:805-813 (2008)). Asked herein was whether this is also the case for primary human AML samples. Three SALL4/PTEN-expressing AML samples were selected for experiments in which cells were first tested under culture conditions that maintain/promote viability of AML cells 28-31. The SALL4-specific shRNA that has been validated in previous studies (Yang et al., PLoS One, 5:e10766 (2010); Yang, et al., Blood, 112:805-813 (2008); Yang et al., PNAS USA, 104:10494-10499 (2007)) was utilized in these AML patient samples (FIG. 11A). 48 hours after transduction, the viability of cells was determined by flow cytometry after staining with Annexin V and propidium iodide (PI). Live cells are Annexin V negative and PI negative, the double negative population. […] Furthermore, in a xenotransplant model, increased survival of leukemic cell recipient NOD/SCID/IL2rγ-null (NSG) mice following knocking down SALL4 expression in the primary AML samples was observed (FIG. 11C). Fatal AML with onset ranging from one to three months developed in all recipients receiving AML cells transduced with a scrambled control shRNA (n=7), while only 2 out of 6 mice receiving SALL4 shRNA-treated primary AML developed leukemia. While the median survival of scrambled shRNA control recipient mice (n=7) was 33 days, the median survival of SALL4 shRNA recipient mice (n=6) was 109 days (P=0.01). The transplanted leukemia disease was characterized by immature blasts with human CD45 expression in peripheral blood, bone marrow, and tissues such as liver and spleen (FIG. 11D to 11F).
# Next tested was whether a therapeutic effect could be achieved by using the wild type peptide in primary human AML samples. The same SALL4/PTEN expressing primary AML samples were selected for experiments under the same culture conditions as mentioned above. Leukemic cells were subjected to three treatment regimes: peptide (wild type or scrambled), peptide plus PTEN inhibitor, or HDAC inhibitor (TSA). To assist peptide delivery into cells, a carrier agent, Pep-1 was used for all the experiments, and control treated cells were given pep-1 alone (mock). […]
compound,measurement,setting,value
"Scr peptide: same 12 amino acids as the wt peptide, but in a scrambled sequence; negative control (SRMRQKIHPKIQ) [reference compound]",cell viability,,over 97%
same,cell death rate,"primary AML, Annexin V/PI",the same value as the untreated
"H-MSRRKQAKPQHI-OH [wt peptide, MSRRKQAKPQHI]",cell viability,"human, 96 h",55.3%
same,cell death rate,"primary AML, Annexin V/PI",56%
"CC(/C=C/C(=O)NO)=C\[C@@H](C)C(=O)c1ccc(N(C)C)cc1 [TSA, Trichostatin A, reference compound]",cell death rate,"primary AML, Annexin V/PI",44%
same,cell viability,"primary AML, fourth day, Pep-1 carrier, untreated set as 100 (Example 2)",54.7%
"GATGCCTTGAAACAAGCCAAGCTACCTCA (chemistry not given here) [compound 7412, SALL4 shRNA used in primary AML cells]",viability after SALL4 knock-down,,80.9%
same,increase in cell apoptosis and cell death,"primary AML, Annexin V/PI, after SALL4 knock-down",2 fold
